Target: purified αvβ3 (Homo sapiens, UniProt P05106+P06756)
Experiment: Binding affinity to purified αvβ3 (fibrinogen-coated plate, IC50)
Settings: purified αvβ3, fibrinogen-coated plates, 2 hours room temperature
Procedure: The binding affinity of exemplary compounds is show in FIG. 11A, including P-bi-TET and m-P-mono-TET (both having n=36). The method was as follows: The binding affinity of P-bi-TET and m-P-mono-TET to purified αvβ3 was measured using the method described by Li, W., et al., Pharmacokinetics, Biodistribution, and Anti-Angiogenesis Efficacy of Diamino Propane Tetraiodothyroacetic Acid-conjugated Biodegradable Polymeric Nanoparticle. Sci Rep, 2019. 9(1): p. 9006. Ninety-six polystyrene microtiter plates coated with fibrinogen and incubated at 4° C. overnight. The wells were blocked with 3% BSA for 2 hours at room temperature and were washed with buffer A (50 mM Tris/HCl, 100 mM NaCl, 1 mM CaCl2), 1 mM MgCl2, 1% BSA) for three times. Integrins αvβ3 and increasing concentrations of P-bi-TET or m-P-mono-TET were added and incubated for 2 hours at room temperature, and then wells were washed three times with buffer A and incubated with a streptavidin HRP conjugate (1:1000 in buffer A) for 1 hour at room temperature. Finally, wells were washed three times with buffer A and 100 μL peroxidase substrate TMB was added, and the reaction was terminated after 30 minutes with 50 μL of 450 nm stop solution for TMB. Absorbance was determined at 450 nm with a Microplate Reader (Bio-Rad, Hercules, Calif., USA). […]

Chain of purified αvβ3 (P06756 31-889 limits assumed): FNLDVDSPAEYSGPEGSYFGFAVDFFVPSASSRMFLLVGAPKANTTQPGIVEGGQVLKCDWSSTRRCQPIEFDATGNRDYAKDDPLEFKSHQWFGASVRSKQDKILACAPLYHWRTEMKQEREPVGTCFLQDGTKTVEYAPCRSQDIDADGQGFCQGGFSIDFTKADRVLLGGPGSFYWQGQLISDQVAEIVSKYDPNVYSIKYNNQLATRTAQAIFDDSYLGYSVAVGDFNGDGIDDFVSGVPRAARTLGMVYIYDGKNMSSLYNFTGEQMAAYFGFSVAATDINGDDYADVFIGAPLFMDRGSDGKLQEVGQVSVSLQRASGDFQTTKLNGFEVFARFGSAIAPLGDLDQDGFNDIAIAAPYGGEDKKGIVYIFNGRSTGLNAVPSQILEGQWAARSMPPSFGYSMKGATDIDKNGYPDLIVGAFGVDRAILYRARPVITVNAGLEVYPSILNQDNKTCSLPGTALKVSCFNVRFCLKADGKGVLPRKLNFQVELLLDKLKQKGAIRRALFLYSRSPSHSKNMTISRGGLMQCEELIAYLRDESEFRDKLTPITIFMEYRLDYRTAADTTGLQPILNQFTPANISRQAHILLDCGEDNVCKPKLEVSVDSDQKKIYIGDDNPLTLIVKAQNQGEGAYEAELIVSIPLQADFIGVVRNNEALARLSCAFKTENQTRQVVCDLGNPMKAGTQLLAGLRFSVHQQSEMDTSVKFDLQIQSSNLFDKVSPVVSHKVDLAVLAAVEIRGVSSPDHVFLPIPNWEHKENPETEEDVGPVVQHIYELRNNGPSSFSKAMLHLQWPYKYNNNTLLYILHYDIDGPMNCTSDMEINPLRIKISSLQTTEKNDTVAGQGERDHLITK
Chain of purified αvβ3 (P06756 891-1048 limits assumed): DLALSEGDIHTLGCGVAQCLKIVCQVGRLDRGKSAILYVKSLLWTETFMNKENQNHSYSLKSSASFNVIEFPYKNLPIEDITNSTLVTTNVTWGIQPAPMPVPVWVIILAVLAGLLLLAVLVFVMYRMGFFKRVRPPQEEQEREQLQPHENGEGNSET
Chain of purified αvβ3 (P05106 27-788): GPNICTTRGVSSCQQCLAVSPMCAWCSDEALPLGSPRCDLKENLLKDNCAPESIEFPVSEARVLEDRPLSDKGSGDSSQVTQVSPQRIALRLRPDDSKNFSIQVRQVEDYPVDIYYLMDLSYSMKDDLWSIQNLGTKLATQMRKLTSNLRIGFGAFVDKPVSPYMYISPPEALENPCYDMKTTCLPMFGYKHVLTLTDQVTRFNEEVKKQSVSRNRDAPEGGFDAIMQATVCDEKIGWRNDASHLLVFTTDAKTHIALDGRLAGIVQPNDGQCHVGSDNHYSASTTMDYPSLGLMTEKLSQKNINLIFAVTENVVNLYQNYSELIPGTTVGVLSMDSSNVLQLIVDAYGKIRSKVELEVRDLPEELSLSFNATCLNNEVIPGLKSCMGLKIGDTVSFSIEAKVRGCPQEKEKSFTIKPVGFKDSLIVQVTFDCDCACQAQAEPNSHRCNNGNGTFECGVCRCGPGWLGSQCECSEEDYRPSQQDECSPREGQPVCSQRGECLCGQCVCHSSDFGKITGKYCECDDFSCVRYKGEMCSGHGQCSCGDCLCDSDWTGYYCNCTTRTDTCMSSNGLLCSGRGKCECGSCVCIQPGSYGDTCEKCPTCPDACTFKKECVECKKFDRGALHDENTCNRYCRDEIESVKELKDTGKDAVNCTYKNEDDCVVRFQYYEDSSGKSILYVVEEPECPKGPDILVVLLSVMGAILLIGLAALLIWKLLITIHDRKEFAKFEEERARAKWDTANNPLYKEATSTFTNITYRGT

Q: O=C(O)Cc1cc(I)c(Oc2cc(I)c(O)c(I)c2)c(I)c1 [Tetrac, tetraiodothyroacetic acid] was tested. Which IC50 did it give?
A: 105.4 ± 0.86 nM
